“Also recorded” adds a separate entry of the source.
Key:
IAV-GFP SC35M strain = format: cell-based, influenza A virus
IAV PR8 strain [1] = format: cell-based, influenza A virus
IBV = experiment: qRT-PCR analysis of IBV RNA in infected A549 cells; format: cell-based, influenza B virus
Description: (§1) The cells were recovered with TRIzol (Invitrogen, 15596), and RNA was extracted according to the manufacturer's protocol. The cDNA was purified using a High-Capacity cDNA Reverse Transcription Kit (Applied Biosystems, 43688). Quantitative reverse transcription polymerase chain reaction (qRT-PCR) was carried out using a Fast SYBR Green Master Mix (Applied Biosystems, 4385614) or a TaqMan Fast Advanced Master Mix (Applied Biosystems, 4444558).

HAZV [2] = format: cell-based, Hazara virus
STBV = experiment: qRT-PCR analysis of STBV RNA in infected A549 cells; format: cell-based, Soft tick bunya virus; settings: A549, m.o.i. 0.1, 24 hours
Description: as §1

HAZV [3] = format: cell-based, Hazara virus; remark: listed apart in the source
[4] = in vivo toxicity in mouse, nasal cavity inoculation, change in body weight; settings: 2 mg/kg intranasally on day 0 and day 1, C57BL/6 mice
Description: Next, the in vivo toxicity in the mouse was evaluated by carrying out nasal cavity inoculation once a day for two days.
TFMT or tubercidin at 2 mg/kg was intranasally administered to C57BL/6 mice on the 0th day of infection and the 1st day of infection (indicated by arrows in the figure).

IAV WSN = experiment: mouse in vivo IAV infection model, qRT-PCR of IAV RNA in lung tissue; design: species or system C57BL/6 mice; settings: 2 mg/kg intranasally on day 0 and day 1; 2 days after infection, 5 × 10^3 PFU
Description: As shown in the figure, the IAV WSN and TFMT were introduced into the nasal cavity. TFMT was added on the 0th day of the IAV WSN infection and the 1st day of the IAV WSN infection.
qRT-PCR analysis (5 × 10^3 PFU) of IAV RNA in the lung tissue of the IAV-infected C57BL/6 mice on the 2nd day was carried out. TFMT of 2 mg/kg was intranasally administered on the 0th day of infection and the 1st day of infection. […] (*p < 0.05, **p < 0.01).

IFN-β RNA = experiment: qRT-PCR analysis of IFN-β RNA and other host RNAs in A549 cells; format: cell-based, human; settings: A549 infected or not with IAV PR8 (m.o.i. 1), 10 µM TFMT
Description: as §1
1 was analyzed in the presence or absence of 10 µM TFMT.
Each RNA indicated in the figure at the indicated moment at the m.o.i. of 1, in A549 cells which had been infected or not infected with the IAV PR8 strain in the presence or absence of 10 µM TFMT, was analyzed.

IAV PR8 strain [5] = system: IAV PR8 strain
human Mtr1 [6] = target: T1, human Mtr1 (Homo sapiens, UniProt Q8N1G2); experiment: methyltransferase (MTase) activity assay; settings: 0.8 µM human MTr1, cap0 RNA, SAM[3H], 37°C overnight
T1 sequence (Q8N1G2 1-835): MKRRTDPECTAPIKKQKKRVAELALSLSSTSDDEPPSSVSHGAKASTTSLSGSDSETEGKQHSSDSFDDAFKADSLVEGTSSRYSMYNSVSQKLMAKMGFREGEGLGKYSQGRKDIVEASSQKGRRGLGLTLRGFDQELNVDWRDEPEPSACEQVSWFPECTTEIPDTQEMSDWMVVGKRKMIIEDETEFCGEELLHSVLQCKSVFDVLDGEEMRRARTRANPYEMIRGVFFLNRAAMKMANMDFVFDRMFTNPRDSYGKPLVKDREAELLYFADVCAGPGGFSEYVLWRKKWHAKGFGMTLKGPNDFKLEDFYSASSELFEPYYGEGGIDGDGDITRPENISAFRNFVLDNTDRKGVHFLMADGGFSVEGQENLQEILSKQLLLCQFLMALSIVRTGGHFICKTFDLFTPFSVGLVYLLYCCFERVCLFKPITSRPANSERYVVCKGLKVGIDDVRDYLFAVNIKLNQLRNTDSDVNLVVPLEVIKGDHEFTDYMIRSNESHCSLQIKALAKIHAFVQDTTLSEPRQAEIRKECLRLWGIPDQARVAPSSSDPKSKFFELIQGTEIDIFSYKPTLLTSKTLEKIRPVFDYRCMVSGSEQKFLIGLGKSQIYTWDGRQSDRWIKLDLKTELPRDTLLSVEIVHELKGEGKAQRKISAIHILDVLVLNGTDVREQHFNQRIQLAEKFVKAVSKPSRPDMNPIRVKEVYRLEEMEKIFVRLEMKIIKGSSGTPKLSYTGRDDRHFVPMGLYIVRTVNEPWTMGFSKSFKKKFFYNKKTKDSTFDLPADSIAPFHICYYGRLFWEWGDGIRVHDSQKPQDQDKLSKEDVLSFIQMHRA
Description: The synthesized RNA, 3'-O-Me-m7GpppGpG (pN27), was used in a methyltransferase activity assay of human MT r1.
The reaction sample was purified using a mini quick oligo column (Roche, 11814397001), and free SAM [3H] was removed. The purified sample was diluted with ULTIMA GOLD (PerkinElmer, 6013329), and the methyltransferase activity was measured in terms of the number of disintegrations per minute (DPM) by using a scintillation counter LS6500 (Beckman Coulter).

human Mtr1 [7] = target: T1, human Mtr1; experiment: thermal shift assay using SYPRO Orange; settings: ribavirin as control
[8] = system: IAV (H1N1, seasonal isolated strain in 2019); format: cell-based, influenza A virus; settings: human lung explant, 10 µM TFMT; compared with untreated sample
[9] = NHBE cells, m.o.i. 1, 24 hours, […]

## trifluoromethyl tubercidin [TFMT]
IAV-GFP SC35M strain
  IAV replication (GFP level), time of addition: significantly inhibited IAV replication; also recorded: the effect was reduced or could not be confirmed
  inhibition at the lowest concentration, secondary screening step 3: identified as the most effective compound
IAV-GFP SC35M strain; combination of TFMT and amantadine, […]
  synergistic effect with amantadine (GFP relative fluorescence units, combination index): exhibited a synergistic effect
IAV-GFP SC35M strain; combined treatment of TFMT and BXM, […]
  synergistic effect with BXM (GFP relative fluorescence units, combination index): a strong synergistic effect was observed
IAV-GFP SC35M strain; read-out: IC50 for IAV infection
  IC50: 300 nM
IAV PR8 strain [1]; A549, m.o.i. 1, 24 hours
  antiviral activity against IAV (virus RNA, qRT-PCR): exhibits an antiviral activity
IAV PR8 strain [1]; A549, m.o.i. 1, 24 hours (FIG. 29)
  dependence of the effect on IAV replication on innate immune factors (IAV RNA segment 7): independent of the IFIT1-dependent isolation of RNA or RIG-I/MDA5 signaling
IBV; A549, m.o.i. 1, 24 hours
  antiviral activity against IBV (virus RNA, qRT-PCR): exhibits an antiviral activity
HAZV [2]
  antiviral activity against HAZV (virus RNA, qRT-PCR): does not exhibit an antiviral activity
STBV
  antiviral activity against STBV (virus RNA, qRT-PCR): does not exhibit an antiviral activity
HAZV [3]
  HAZV replication (HAZV RNA, qRT-PCR): did not inhibit HAZV replication
[4]
  change in body weight: does not cause body weight loss or cell cytotoxicity
IAV WSN
  IAV NP level in the mouse lung (IAV RNA segment 5, qRT-PCR): significantly reduced
  PB2 mRNA level in the mouse lung (IAV RNA segment 1, qRT-PCR): significantly reduced
IFN-β RNA
  induction of IFN-β or antiviral ISG (qRT-PCR): did not induce IFN-β or antiviral ISG
A549 cells
  cell cytotoxicity of combined treatment (WST-8): without cell cytotoxicity
A549 cells; A549, within the effective concentration range
  in vitro toxicity (WST-8 cell survival rate assay): no significant in vitro toxicity was confirmed within the effective concentration range
IAV PR8 strain [5]
  cell cytotoxicity in NHBE cells (histological analysis): without cell cytotoxicity
IAV PR8 strain [5]; [9]
  RNA level of IAV (segment 7, qRT-PCR): significantly reduced in a dosage-dependent manner
  protein level of IAV (Western blot): significantly reduced in a dosage-dependent manner
IAV PR8 strain [5]; NHBE cells, m.o.i. 2, 24 hours, 10 µM TFMT
  IAV NP level (immunostaining): significantly decreased
Human Mtr1 [6]
  MTase activity of the recombinant MTr1 protein: inhibited

## Nc1ncnc2c1ccn2[C@@H]1O[C@H](CO)[C@@H](O)[C@H]1O [tubercidin]
IAV-GFP SC35M strain
  anti-IAV activity, rank among 12 commercially available compounds (GFP level): identified as the most effective compound
  inhibition of IAV-GFP (GFP level), dose dependence: the inhibition depended on the dose at 0.1 to 100 µM
IBV; A549, compound added 3 hours before infection (FIG. 19(d))
  effect on IBV infection: had an effect on the IBV infectious disease
[4]
  change in body weight: caused a significant body weight loss
A549 cells; A549 infected with IAV-GFP, 19 hours, tubercidin 0.1 to 100 µM
  toxicity (WST-8): the toxicity was slight
Human Mtr1 [7]
  binding to recombinant MTr1 (thermal shift): directly binds to the recombinant MTr1
Human Mtr1 [6]
  MTase activity of the recombinant MTr1 protein: inhibits the MTase activity of the recombinant MTr1 protein in a dosage-dependent manner

## Nc1ncnc2c1c(C(F)(F)F)cn2[C@@H]1O[C@H](CO)[C@@H](O)[C@H]1O [TFMT, trifluoromethyl tubercidin]
[8]
  virus titer, second figure printed in the same sentence ('and was 100 to 1,000'): 100 to 1,000

— patent publication EP4603099A1 (priority 2022, dated 2024)
